# Reference: ChEMBL document CHEMBL6096696, “Structure-Activity Relationship Studies of an Autophagy Inhibitor That Targets the ATG14L-Beclin1 Protein-Protein Interaction Reveal Modifications That Improve Potency and Solubility and Maintain Selectivity” (J Med Chem, 2025)
# Legend:
# [1] = Selectivity ratio of inhibition of C-terminal Nano-luc tagged UVRAG/C-terminal Halo-tagged Beclin 1 (unknown origin) PPI tranfected with HEK293T cells to inhibition of C-terminal Nano-luc tagged ATG14L/C-terminal Halo-tagged Beclin 1 (unknown origin) PPI tranfected with HEK293T cells
# [2] = Kinetic aqueous solubility of compound in PBS at pH 7.4 by absorbance based analysis; type: physicochemical; settings: read-out: Kinetic_solubility
# HEK293T [3] = assay: Inhibition of C-terminal Nano-luc tagged UVRAG/C-terminal Halo-tagged Beclin 1 (unknown origin) PPI tranfected with HEK293T cells using […] at 100 uM incubated for 24 hrs by […] assay relative to control; type: cell-based; settings: Homo sapiens, values are per cent of control
# HEK293T [4] = assay: Inhibition of C-terminal Nano-luc tagged ATG14L/C-terminal Halo-tagged Beclin 1 (unknown origin) PPI tranfected with HEK293T cells using […] at 100 uM incubated for 24 hrs by […] assay relative to control; type: cell-based; settings: Homo sapiens, values are per cent of control
smiles,measurement,setting,value
COc1ccccc1-c1ccc2c(c1)N(Cc1noc(C3CCC3)n1)C(=O)CO2,Selectivity ratio,[1],1.06
same,solubility kinetic,[2],> 100 µM
same,"residual binding, % of control",HEK293T [3],104%
same,"residual binding, % of control",HEK293T [4],98.3%
CCCCN1C(=O)COc2ccc(S(=O)(=O)Nc3cccc(C)c3C)cc21,solubility kinetic,[2],> 100 µM
same,"residual binding, % of control",HEK293T [4],110%
CCCN1C(=O)COc2ccc(S(=O)(=O)Nc3c(C)cccc3C)cc21,solubility kinetic,[2],> 100 µM
same,"residual binding, % of control",HEK293T [4],105%
Cc1c(Cl)cccc1Nc1ccc2c(c1)N(Cc1noc(C3CCC3)n1)C(=O)CO2,Selectivity ratio,[1],1.4
same,solubility kinetic,[2],100 µM
same,"residual binding, % of control",HEK293T [3],118%
same,"residual binding, % of control",HEK293T [4],83.9%
Cc1cccc(NS(=O)(=O)c2ccc3c(c2)OCC(=O)N3Cc2ccccc2)c1C,solubility kinetic,[2],50 µM
same,"residual binding, % of control",HEK293T [4],105%
Cc1cccc(NS(=O)(=O)c2ccc3c(c2)OCC(=O)N3CCc2ccccc2)c1C,solubility kinetic,[2],> 100 µM
same,"residual binding, % of control",HEK293T [4],103%
CCCN1C(=O)COc2ccc(S(=O)(=O)Nc3cc(OC)ccc3OC)cc21,solubility kinetic,[2],> 100 µM
same,"residual binding, % of control",HEK293T [4],107%
O=C1COc2ccc(-c3cccc(OC(F)(F)F)c3)cc2N1Cc1noc(C2CCC2)n1,Selectivity ratio,[1],1.05
same,solubility kinetic,[2],> 100 µM
same,"residual binding, % of control",HEK293T [3],110%
same,"residual binding, % of control",HEK293T [4],105%
CCCN1C(=O)COc2ccc(S(=O)(=O)Nc3cccc(Cl)c3)cc21,solubility kinetic,[2],> 100 µM
same,"residual binding, % of control",HEK293T [4],145%
CCCN1C(=O)COc2ccc(NC(=O)c3cccc(Br)c3)cc21,solubility kinetic,[2],> 100 µM
same,"residual binding, % of control",HEK293T [4],112%
Cc1cccc(Nc2ccc3c(c2)N(Cc2noc(C4CCC4)n2)C(=O)CO3)c1Cl,Selectivity ratio,[1],1.13
same,solubility kinetic,[2],100 µM
same,"residual binding, % of control",HEK293T [3],102%
same,"residual binding, % of control",HEK293T [4],89.8%
CCCN1C(=O)COc2ccc(S(=O)(=O)N3CCOCC3)cc21,solubility kinetic,[2],> 100 µM
same,"residual binding, % of control",HEK293T [4],110%
CCCN1C(=O)COc2ccc(Nc3ccccc3Br)cc21,Selectivity ratio,[1],1.49
same,solubility kinetic,[2],> 100 µM
same,"residual binding, % of control",HEK293T [3],108%
same,"residual binding, % of control",HEK293T [4],82.9%
CCCN1C(=O)COc2ccc(S(=O)(=O)Nc3ccccc3F)cc21,solubility kinetic,[2],> 100 µM
same,"residual binding, % of control",HEK293T [4],147%
Cc1cccc(NS(=O)(=O)c2ccc3c(c2)OCC(=O)N3Cc2ccco2)c1C,solubility kinetic,[2],> 100 µM
same,"residual binding, % of control",HEK293T [4],109%
Cc1cccc(NS(=O)(=O)c2ccc3c(c2)N(C)C(=O)CO3)c1C,solubility kinetic,[2],> 100 µM
same,"residual binding, % of control",HEK293T [4],106%
CCCN1C(=O)COc2ccc(NS(=O)(=O)c3ccc(F)cc3C)cc21,solubility kinetic,[2],> 100 µM
same,"residual binding, % of control",HEK293T [4],99.8%
Cc1cccc(NS(=O)(=O)c2ccc3c(c2)N(CC2CCCCC2)C(=O)CO3)c1C,solubility kinetic,[2],> 100 µM
same,"residual binding, % of control",HEK293T [4],106%
CCCN1C(=O)COc2ccc(S(=O)(=O)NCc3ccccc3)cc21,solubility kinetic,[2],> 100 µM
same,"residual binding, % of control",HEK293T [4],116%
CCCN1C(=O)COc2ccc(NS(=O)(=O)c3cc(OC)ccc3OC)cc21,solubility kinetic,[2],> 100 µM
same,"residual binding, % of control",HEK293T [4],103%
CCCN1C(=O)COc2ccc(NS(=O)(=O)c3cccc(OC)c3)cc21,solubility kinetic,[2],> 100 µM
same,"residual binding, % of control",HEK293T [4],99.8%
Cc1cccc(NS(=O)(=O)c2ccc3c(c2)N(CC(C)O)C(=O)CO3)c1C (centres undefined),solubility kinetic,[2],> 100 µM
same,"residual binding, % of control",HEK293T [4],107%
CCCN1C(=O)COc2ccc(NS(=O)(=O)c3cccc(C)c3)cc21,solubility kinetic,[2],> 100 µM
same,"residual binding, % of control",HEK293T [4],96.2%
CCCN1C(=O)COc2ccc(S(=O)(=O)Nc3cccc(Cl)c3C)cc21,solubility kinetic,[2],> 100 µM
same,"residual binding, % of control",HEK293T [4],131%
CC(C)c1cccc(-c2ccc3c(c2)N(Cc2noc(C4CCC4)n2)C(=O)CO3)c1,Selectivity ratio,[1],1.21
same,solubility kinetic,[2],> 100 µM
same,"residual binding, % of control",HEK293T [3],99.1%
same,"residual binding, % of control",HEK293T [4],81.6%
CCCN1C(=O)COc2ccc(Nc3cccc(C)c3C)cc21,Selectivity ratio,[1],1.04
same,solubility kinetic,[2],> 100 µM
same,"residual binding, % of control",HEK293T [3],108%
same,"residual binding, % of control",HEK293T [4],104%
CC(C)c1cccc(Nc2ccc3c(c2)N(Cc2noc(C4CCC4)n2)C(=O)CO3)c1,Selectivity ratio,[1],1.18
same,solubility kinetic,[2],> 100 µM
same,"residual binding, % of control",HEK293T [3],105%
same,"residual binding, % of control",HEK293T [4],88.7%
CCCN1C(=O)COc2ccc(NC(=O)c3ccccc3)cc21,solubility kinetic,[2],> 100 µM
same,"residual binding, % of control",HEK293T [4],106%
CCCN1C(=O)COc2ccc(NC(=O)c3cccc([N+](=O)[O-])c3)cc21,solubility kinetic,[2],> 100 µM
same,"residual binding, % of control",HEK293T [4],104%
CCCN1C(=O)COc2ccc(NS(=O)(=O)c3cccc(C(F)(F)F)c3)cc21,solubility kinetic,[2],> 100 µM
same,"residual binding, % of control",HEK293T [4],80%
O=C1COc2ccc(-c3cccc(F)c3)cc2N1Cc1noc(C2CCC2)n1,Selectivity ratio,[1],1.11
same,solubility kinetic,[2],50 µM
same,"residual binding, % of control",HEK293T [3],101%
same,"residual binding, % of control",HEK293T [4],90.3%
CCCN1C(=O)COc2ccc(NC(=O)c3ccc(Cl)cc3Cl)cc21,solubility kinetic,[2],50 µM
same,"residual binding, % of control",HEK293T [4],109%
CCCN1C(=O)COc2ccc(NS(=O)(=O)c3cccc(C)c3C)cc21,solubility kinetic,[2],> 100 µM
same,"residual binding, % of control",HEK293T [4],83.2%
CCCN1C(=O)COc2ccc(NC(=O)c3cccc(C)c3C)cc21,solubility kinetic,[2],> 100 µM
same,"residual binding, % of control",HEK293T [4],92%
CCCN1C(=O)COc2ccc(Nc3cccc(Cl)c3C)cc21,Selectivity ratio,[1],1.02
same,solubility kinetic,[2],50 µM
same,"residual binding, % of control",HEK293T [3],104%
same,"residual binding, % of control",HEK293T [4],101%
CCCN1C(=O)COc2ccc(NS(=O)(=O)c3c(C(C)C)cc(C(C)C)cc3C(C)C)cc21,solubility kinetic,[2],> 100 µM
same,"residual binding, % of control",HEK293T [4],59.9%
O=C1COc2ccc(Nc3ccccc3F)cc2N1Cc1noc(C2CCC2)n1,Selectivity ratio,[1],1.23
same,solubility kinetic,[2],> 100 µM
same,"residual binding, % of control",HEK293T [3],101%
same,"residual binding, % of control",HEK293T [4],82%
CCCN1C(=O)COc2ccc(NS(=O)(=O)c3cccc(Br)c3)cc21,solubility kinetic,[2],> 100 µM
same,"residual binding, % of control",HEK293T [4],101%
Cc1ccccc1-c1ccc2c(c1)N(Cc1noc(C3CCC3)n1)C(=O)CO2,Selectivity ratio,[1],1.01
same,solubility kinetic,[2],> 100 µM
same,"residual binding, % of control",HEK293T [3],110%
same,"residual binding, % of control",HEK293T [4],109%
CCCN1C(=O)COc2ccc(S(=O)(=O)Nc3ccccc3Br)cc21,solubility kinetic,[2],> 100 µM
same,"residual binding, % of control",HEK293T [4],132%
O=C1COc2ccc(-c3ccccc3)cc2N1Cc1noc(C2CCC2)n1,Selectivity ratio,[1],1.06
same,solubility kinetic,[2],> 100 µM
same,"residual binding, % of control",HEK293T [3],105%
same,"residual binding, % of control",HEK293T [4],98.7%
Cc1cccc(Nc2ccc3c(c2)N(Cc2noc(C4CCC4)n2)C(=O)CO3)c1C,Selectivity ratio,[1],1.5
same,solubility kinetic,[2],> 100 µM
same,"residual binding, % of control",HEK293T [3],119%
same,"residual binding, % of control",HEK293T [4],79.3%
CCCN1C(=O)COc2ccc(S(=O)(=O)Nc3cccc(N4CCOCC4)c3)cc21,solubility kinetic,[2],> 100 µM
same,"residual binding, % of control",HEK293T [4],108%
O=C1COc2ccc(Nc3cccc(Cl)c3Cl)cc2N1Cc1noc(C2CCC2)n1,Selectivity ratio,[1],1.25
same,solubility kinetic,[2],25 µM
same,"residual binding, % of control",HEK293T [3],108%
same,"residual binding, % of control",HEK293T [4],86.2%
Cc1cccc(NS(=O)(=O)c2ccc3c(c2)OCC(=O)N3Cc2ccccn2)c1C,solubility kinetic,[2],> 100 µM
same,"residual binding, % of control",HEK293T [4],112%
CCCN1C(=O)COc2ccc(NS(=O)(=O)c3ccc(Cl)cc3Cl)cc21,solubility kinetic,[2],> 100 µM
same,"residual binding, % of control",HEK293T [4],101%
CCCN1C(=O)COc2ccc(S(=O)(=O)N3CCCCC3)cc21,solubility kinetic,[2],> 100 µM
same,"residual binding, % of control",HEK293T [4],109%
CCCN1C(=O)COc2ccc(NC(=O)Cc3ccccc3)cc21,solubility kinetic,[2],> 100 µM
same,"residual binding, % of control",HEK293T [4],127%
CCCN1C(=O)COc2ccc(NC(=O)c3ccccc3Br)cc21,solubility kinetic,[2],> 100 µM
same,"residual binding, % of control",HEK293T [4],119%
CCCN1C(=O)COc2ccc(NS(=O)(=O)c3ccccc3)cc21,solubility kinetic,[2],> 100 µM
same,"residual binding, % of control",HEK293T [4],89.2%
CCCN1C(=O)COc2ccc(S(=O)(=O)Nc3ccccc3)cc21,solubility kinetic,[2],> 100 µM
same,"residual binding, % of control",HEK293T [4],134%
CCCN1C(=O)COc2ccc(NS(=O)(=O)c3ccccc3Br)cc21,solubility kinetic,[2],> 100 µM
same,"residual binding, % of control",HEK293T [4],88.1%
